Experimental data published in patent publication US8952024B2, “Herbicidal pyrimidone derivatives” (E I du Pont de Nemours and Company, priority 2009, dated 2015).

Assays:
Experiment in all cases: Test B pre-/postemergence plant response
Type in all cases: in vivo
[1] = tested on: Italian ryegrass (Lolium multiflorum)
How it was run: (§1)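 Compound in solvent + surfactant applied pre-em (loam/sand) or post-em (plants 2–18 cm, peat medium); greenhouse hold 13–15 days; visual 0–100 control score.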

[2] = tested on: Surinam grass (Brachiaria decumbens)
How it was run: as §1

[3] = tested on: bermudagrass (Cynodon dactylon)
How it was run: as §1

[4] = tested on: blackgrass (Alopecurus myosuroides)
How it was run: as §1

[5] = tested on: cocklebur (Xanthium strumarium)
How it was run: as §1

[6] = tested on: downy bromegrass (Bromus tectorum)
How it was run: as §1

kochia (Kochia scoparia) = tested on: kochia (Kochia scoparia)
How it was run: as §1

[7] = tested on: large crabgrass (Digitaria sanguinalis)
How it was run: as §1

[8] = tested on: morningglory (Ipomoea coccinea)
How it was run: as §1

[9] = tested on: ragweed (common ragweed, Ambrosia elatior)
How it was run: as §1

[10] = tested on: wheat (Triticum aestivum)
How it was run: as §1

wild oat (Avena fatua) = tested on: wild oat (Avena fatua)
How it was run: as §1

[11] = tested on: woolly cupgrass (Eriochloa villosa)
How it was run: as §1

[12] = 62 g ai/ha, postemergence, 0 is no effect, 100 is complete control, 13 to 15 days
[13] = Postemergence, 125 g ai/ha, scale 0 to 100 (0 no effect, 100 complete control)
[14] = Postemergence, 250 g ai/ha, scale 0 to 100 (0 no effect, 100 complete control)
[15] = 31 g ai/ha, postemergence, scale 0 to 100, 0 is no effect, 100 is complete control
[16] = Postemergence, 31 g ai/ha, 0 to 100 scale (0 no effect, 100 complete control)
[17] = Postemergence, 62 g ai/ha, scale 0 to 100 (0 no effect, 100 complete control)
[18] = Postemergence, 250 g ai/ha, scale 0 to 100 (0 no effect, 100 complete control), 13 to 15 days
[19] = Preemergence, 31 g ai/ha, scale 0 to 100 (0 no effect, 100 complete control)
[20] = Preemergence, 62 g ai/ha, scale 0 to 100 (0 no effect, 100 complete control)
[21] = Preemergence, 125 g ai/ha, scale 0 to 100, 0 no effect, 100 complete control
[22] = Preemergence, 250 g ai/ha, 0 to 100 scale

## COCCn1c(-c2cccc(C)c2)ncc(C(=O)C2=C(O)CCCC2=O)c1=O [Compound 117]
[1]; [12]
  Ryegrass, Italian plant response rating (0 to 100 scale): 10
[1]; [13]
  Plant response rating, Ryegrass, Italian: 15
[1]; [14]
  Plant response rating, Ryegrass, Italian: 50
[2]; [12]
  Surinam Grass plant response rating (0 to 100 scale): 75
[2]; [14]
  Plant response rating, Surinam Grass: 85
[3]; [15]
  Plant response rating, Bermudagrass: 75
[3]; [12]
  Bermudagrass plant response rating (0 to 100 scale): 90
[3]; [13]
  Plant response rating, Bermudagrass: 95
[3]; [14]
  Plant response rating, Bermudagrass: 100
[4]; [15]
  Plant response rating, Blackgrass: 0
[4]; [12]
  Blackgrass plant response rating (0 to 100 scale): 10
[4]; [13]
  Plant response rating, Blackgrass: 40
[4]; [14]
  Plant response rating, Blackgrass: 40
[5]; [15]
  Plant response rating, Cocklebur: 75
[5]; [12]
  Cocklebur plant response rating (0 to 100 scale): 75
[5]; [13]
  Plant response rating, Cocklebur: 98
[5]; [14]
  Plant response rating, Cocklebur: 100
[6]; [15]
  Plant response rating, Bromegrass, Downy: 5
[6]; [12]
  Bromegrass, Downy plant response rating (0 to 100 scale): 10
[6]; [13]
  Plant response rating, Bromegrass, Downy: 15
[6]; [14]
  Plant response rating, Bromegrass, Downy: 45
Kochia (Kochia scoparia); [15]
  Plant response rating, Kochia: 45
Kochia (Kochia scoparia); [12]
  Kochia plant response rating (0 to 100 scale): 50
Kochia (Kochia scoparia); [14]
  Plant response rating, Kochia: 85
[7]; [15]
  Plant response rating, Crabgrass, Large: 75
[7]; [12]
  Crabgrass, Large plant response rating (0 to 100 scale): 80
[7]; [13]
  Plant response rating, Crabgrass, Large: 95
[7]; [14]
  Plant response rating, Crabgrass, Large: 95
[8]; [15]
  Plant response rating, Morningglory: 10
[8]; [12]
  Morningglory plant response rating (0 to 100 scale): 75
[8]; [13]
  Plant response rating, Morningglory: 80
[8]; [14]
  Plant response rating, Morningglory: 100
[9]; [12]
  Ragweed plant response rating (0 to 100 scale): 75
[9]; [13]
  Plant response rating, Ragweed: 90
[9]; [14]
  Plant response rating, Ragweed: 98
[10]; [12]
  Wheat plant response rating (0 to 100 scale): 5
[10]; [13]
  Plant response rating, Wheat: 20
Wild oat (Avena fatua); [15]
  Plant response rating, Oat, Wild: 5
Wild oat (Avena fatua); [12]
  Oat, Wild plant response rating (0 to 100 scale): 10
Wild oat (Avena fatua); [13]
  Plant response rating, Oat, Wild: 30
Wild oat (Avena fatua); [14]
  Plant response rating, Oat, Wild: 35
[11]; [15]
  Plant response rating, Cupgrass, Woolly: 65
[11]; [12]
  Cupgrass, Woolly plant response rating (0 to 100 scale): 85
[11]; [13]
  Plant response rating, Cupgrass, Woolly: 95
[11]; [14]
  Plant response rating, Cupgrass, Woolly: 98

## CCc1ccc(-n2c(-c3ccccc3)ncc(C(=O)C3=C(O)CCCC3=O)c2=O)cc1 [Compound 219]
[1]; [16]
  Plant response rating, Ryegrass, Italian: 20
[1]; [17]
  Plant response rating, Ryegrass, Italian: 25
[1]; [18]
  Plant response rating, Ryegrass, Italian: 40
[1]; [19]
  Plant response rating, Ryegrass, Italian: 0
[1]; [20]
  Plant response rating, Ryegrass, Italian: 0
[1]; [21]
  Plant response rating, Ryegrass, Italian: 5
[1]; [22]
  Ryegrass, Italian plant response rating: 10
[2]; [16]
  Plant response rating, Surinam Grass: 10
[2]; [17]
  Plant response rating, Surinam Grass: 25
[2]; [18]
  Plant response rating, Surinam Grass: 65
[2]; [19]
  Plant response rating, Surinam Grass: 10
[2]; [20]
  Plant response rating, Surinam Grass: 10
[2]; [21]
  Plant response rating, Surinam Grass: 45
[2]; [22]
  Surinam Grass plant response rating: 100
[3]; [16]
  Plant response rating, Bermudagrass: 95
[3]; [17]
  Plant response rating, Bermudagrass: 98
[3]; [13]
  Plant response rating, Bermudagrass: 100
[3]; [18]
  Plant response rating, Bermudagrass: 100
[3]; [19]
  Plant response rating, Bermudagrass: 98
[3]; [20]
  Plant response rating, Bermudagrass: 100
[3]; [21]
  Plant response rating, Bermudagrass: 100
[3]; Preemergence, 250 g ai/ha, 0 to 100 scale, 0 no effect, 100 complete control
  Bermudagrass plant response rating: 100
[4]; [16]
  Plant response rating, Blackgrass: 50
[4]; [17]
  Plant response rating, Blackgrass: 55
[4]; [13]
  Plant response rating, Blackgrass: 55
[4]; [18]
  Plant response rating, Blackgrass: 90
[4]; [19]
  Plant response rating, Blackgrass: 30
[4]; [20]
  Plant response rating, Blackgrass: 35
[4]; [21]
  Plant response rating, Blackgrass: 40
[4]; [22]
  Blackgrass plant response rating: 60
[5]; [20]
  Plant response rating, Cocklebur: 75
[5]; [22]
  Cocklebur plant response rating: 85
[6]; [16]
  Plant response rating, Bromegrass, Downy: 45
[6]; [17]
  Plant response rating, Bromegrass, Downy: 50
[6]; [13]
  Plant response rating, Bromegrass, Downy: 80
[6]; [18]
  Plant response rating, Bromegrass, Downy: 80
[6]; [19]
  Plant response rating, Bromegrass, Downy: 0
[6]; [20]
  Plant response rating, Bromegrass, Downy: 0
[6]; [21]
  Plant response rating, Bromegrass, Downy: 10
[6]; [22]
  Bromegrass, Downy plant response rating: 20
Kochia (Kochia scoparia); [16]
  Plant response rating, Kochia: 80
Kochia (Kochia scoparia); [17]
  Plant response rating, Kochia: 98
Kochia (Kochia scoparia); [13]
  Plant response rating, Kochia: 98
Kochia (Kochia scoparia); [18]
  Plant response rating, Kochia: 100
[7]; [16]
  Plant response rating, Crabgrass, Large: 90
[7]; [17]
  Plant response rating, Crabgrass, Large: 95
[7]; [13]
  Plant response rating, Crabgrass, Large: 95
[7]; [18]
  Plant response rating, Crabgrass, Large: 98
[7]; [19]
  Plant response rating, Crabgrass, Large: 10
[7]; [20]
  Plant response rating, Crabgrass, Large: 98
[7]; [21]
  Plant response rating, Crabgrass, Large: 100
[7]; [22]
  Crabgrass, Large plant response rating: 100
[8]; [16]
  Plant response rating, Morningglory: 60
[8]; [17]
  Plant response rating, Morningglory: 85
[8]; [13]
  Plant response rating, Morningglory: 100
[8]; [18]
  Plant response rating, Morningglory: 100
[8]; [19]
  Plant response rating, Morningglory: 0
[8]; [20]
  Plant response rating, Morningglory: 0
[8]; [21]
  Plant response rating, Morningglory: 15
[8]; [22]
  Morningglory plant response rating: 100
[9]; [16]
  Plant response rating, Ragweed: 80
[9]; [17]
  Plant response rating, Ragweed: 98
[9]; [18]
  Plant response rating, Ragweed: 100
[9]; [19]
  Plant response rating, Ragweed: 45
[9]; [20]
  Plant response rating, Ragweed: 75
[9]; [21]
  Plant response rating, Ragweed: 85
[9]; [22]
  Ragweed plant response rating: 98
[10]; [16]
  Plant response rating, Wheat: 40
[10]; [17]
  Plant response rating, Wheat: 50
[10]; [18]
  Plant response rating, Wheat: 50
[10]; [19]
  Plant response rating, Wheat: 0
[10]; [20]
  Plant response rating, Wheat: 0
[10]; [21]
  Plant response rating, Wheat: 0
[10]; [22]
  Wheat plant response rating: 0
Wild oat (Avena fatua); [16]
  Plant response rating, Oat, Wild: 50
Wild oat (Avena fatua); [17]
  Plant response rating, Oat, Wild: 70
Wild oat (Avena fatua); [18]
  Plant response rating, Oat, Wild: 85
Wild oat (Avena fatua); [19]
  Plant response rating, Oat, Wild: 0
Wild oat (Avena fatua); [20]
  Plant response rating, Oat, Wild: 0
Wild oat (Avena fatua); [21]
  Plant response rating, Oat, Wild: 5
Wild oat (Avena fatua); [22]
  Oat, Wild plant response rating: 40
[11]; [16]
  Plant response rating, Cupgrass, Woolly: 85
[11]; [17]
  Plant response rating, Cupgrass, Woolly: 85
[11]; [13]
  Plant response rating, Cupgrass, Woolly: 95
[11]; [18]
  Plant response rating, Cupgrass, Woolly: 98
[11]; [19]
  Plant response rating, Cupgrass, Woolly: 0
[11]; [20]
  Plant response rating, Cupgrass, Woolly: 10
[11]; [21]
  Plant response rating, Cupgrass, Woolly: 20
[11]; [22]
  Cupgrass, Woolly plant response rating: 80
